Assay results from patent publication US12275731B2, “Azaindole inhibitors of wild-type and mutant forms of LRRK2” (DANA-FARBER CANCER INSTITUTE, INC., priority 2018, dated 2025).

Experiments:
Test in all cases: KinomeScan profiling
Format in all cases: binding
CDK5 = CDK5 (Homo sapiens, UniProt Q00535); conditions: CDK5, 1 μM; read-out: % control
Outline: (§1)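 Test agents were profiled at a single concentration of 1 μM (DMSO vehicle) on a near-complete set of 468 kinases. Signal is reported relative to vehicle (100%) and a fully displacing control (0%).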

IKK-beta = target: T1, IKK-beta (Homo sapiens, UniProt O14920); conditions: read-out: % control
T1 construct: purchased KinomeScan®
T1 sequence (O14920 1-756): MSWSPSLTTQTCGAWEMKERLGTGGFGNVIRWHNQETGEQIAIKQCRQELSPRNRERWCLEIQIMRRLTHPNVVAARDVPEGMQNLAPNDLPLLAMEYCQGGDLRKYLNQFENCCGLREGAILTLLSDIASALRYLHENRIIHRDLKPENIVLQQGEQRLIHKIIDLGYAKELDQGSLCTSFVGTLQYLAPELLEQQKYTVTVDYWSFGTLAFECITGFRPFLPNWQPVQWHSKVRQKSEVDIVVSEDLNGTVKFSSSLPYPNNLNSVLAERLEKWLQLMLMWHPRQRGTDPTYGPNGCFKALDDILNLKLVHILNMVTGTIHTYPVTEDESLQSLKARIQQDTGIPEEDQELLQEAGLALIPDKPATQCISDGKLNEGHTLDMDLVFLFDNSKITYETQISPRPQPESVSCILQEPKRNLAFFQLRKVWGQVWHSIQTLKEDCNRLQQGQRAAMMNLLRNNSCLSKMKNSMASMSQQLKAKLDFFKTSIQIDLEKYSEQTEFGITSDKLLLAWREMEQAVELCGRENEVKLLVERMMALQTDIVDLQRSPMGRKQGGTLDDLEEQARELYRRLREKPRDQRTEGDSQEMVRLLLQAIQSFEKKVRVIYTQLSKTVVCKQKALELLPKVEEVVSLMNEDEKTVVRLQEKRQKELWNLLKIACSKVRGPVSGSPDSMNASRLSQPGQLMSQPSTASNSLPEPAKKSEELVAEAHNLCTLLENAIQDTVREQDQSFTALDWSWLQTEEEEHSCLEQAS
Outline: as §1

ROCK1 = ROCK1 (Homo sapiens, UniProt Q13464); conditions: ROCK1, 1 μM; read-out: % control
Chain of ROCK1 (Q13464 whole entry): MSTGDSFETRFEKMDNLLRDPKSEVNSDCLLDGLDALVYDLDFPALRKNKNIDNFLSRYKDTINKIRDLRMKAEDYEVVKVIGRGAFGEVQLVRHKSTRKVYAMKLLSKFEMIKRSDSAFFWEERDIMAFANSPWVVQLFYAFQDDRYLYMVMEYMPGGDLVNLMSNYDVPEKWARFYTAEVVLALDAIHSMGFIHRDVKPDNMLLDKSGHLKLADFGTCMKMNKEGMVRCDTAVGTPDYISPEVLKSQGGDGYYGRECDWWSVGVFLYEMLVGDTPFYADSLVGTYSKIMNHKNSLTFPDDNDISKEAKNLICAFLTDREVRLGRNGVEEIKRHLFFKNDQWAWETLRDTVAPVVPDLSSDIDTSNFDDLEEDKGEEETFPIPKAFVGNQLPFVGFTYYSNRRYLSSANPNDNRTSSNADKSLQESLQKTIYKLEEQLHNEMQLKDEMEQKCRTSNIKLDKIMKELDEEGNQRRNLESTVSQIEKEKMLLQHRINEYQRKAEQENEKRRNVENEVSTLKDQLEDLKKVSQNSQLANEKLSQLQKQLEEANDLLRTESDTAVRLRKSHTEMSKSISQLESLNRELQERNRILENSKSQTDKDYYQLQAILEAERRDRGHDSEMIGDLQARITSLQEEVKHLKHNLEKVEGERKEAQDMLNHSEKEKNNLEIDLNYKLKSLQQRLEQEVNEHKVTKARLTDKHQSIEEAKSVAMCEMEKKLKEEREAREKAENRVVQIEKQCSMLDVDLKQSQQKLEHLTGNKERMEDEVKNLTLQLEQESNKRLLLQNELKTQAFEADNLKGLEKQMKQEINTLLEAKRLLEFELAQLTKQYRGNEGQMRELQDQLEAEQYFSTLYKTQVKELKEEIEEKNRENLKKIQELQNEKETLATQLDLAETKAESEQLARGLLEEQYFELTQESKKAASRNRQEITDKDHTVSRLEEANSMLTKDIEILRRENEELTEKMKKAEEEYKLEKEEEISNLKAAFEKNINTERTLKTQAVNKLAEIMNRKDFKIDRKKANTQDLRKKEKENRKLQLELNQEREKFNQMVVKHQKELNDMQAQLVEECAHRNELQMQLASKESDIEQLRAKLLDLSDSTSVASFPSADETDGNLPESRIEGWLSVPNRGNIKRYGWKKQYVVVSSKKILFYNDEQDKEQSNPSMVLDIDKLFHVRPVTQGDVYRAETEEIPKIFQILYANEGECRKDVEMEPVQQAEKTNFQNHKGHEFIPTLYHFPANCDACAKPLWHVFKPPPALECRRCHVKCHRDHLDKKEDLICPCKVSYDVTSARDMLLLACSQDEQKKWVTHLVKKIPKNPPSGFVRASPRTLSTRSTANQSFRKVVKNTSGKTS
Outline: as §1

MKNK2 = MKNK2 (Homo sapiens, UniProt Q9HBH9); conditions: MKNK2, 1 μM; read-out: % control
Chain of MKNK2 (Q9HBH9 whole entry): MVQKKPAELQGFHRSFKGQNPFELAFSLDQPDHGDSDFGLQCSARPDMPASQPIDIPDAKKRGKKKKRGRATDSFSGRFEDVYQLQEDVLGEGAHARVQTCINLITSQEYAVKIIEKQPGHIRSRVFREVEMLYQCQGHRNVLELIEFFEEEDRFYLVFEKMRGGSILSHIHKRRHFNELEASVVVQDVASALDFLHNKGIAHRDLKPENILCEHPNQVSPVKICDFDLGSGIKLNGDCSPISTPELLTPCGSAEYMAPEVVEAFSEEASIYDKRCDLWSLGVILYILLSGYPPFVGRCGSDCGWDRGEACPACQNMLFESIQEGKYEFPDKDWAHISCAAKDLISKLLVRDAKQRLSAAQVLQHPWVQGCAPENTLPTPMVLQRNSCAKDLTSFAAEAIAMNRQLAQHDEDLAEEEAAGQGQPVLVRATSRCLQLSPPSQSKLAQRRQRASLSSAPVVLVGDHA
Outline: as §1

EGFR = EGFR (Homo sapiens, UniProt P00533); conditions: read-out: % control
Chain of EGFR (P00533 25-1210): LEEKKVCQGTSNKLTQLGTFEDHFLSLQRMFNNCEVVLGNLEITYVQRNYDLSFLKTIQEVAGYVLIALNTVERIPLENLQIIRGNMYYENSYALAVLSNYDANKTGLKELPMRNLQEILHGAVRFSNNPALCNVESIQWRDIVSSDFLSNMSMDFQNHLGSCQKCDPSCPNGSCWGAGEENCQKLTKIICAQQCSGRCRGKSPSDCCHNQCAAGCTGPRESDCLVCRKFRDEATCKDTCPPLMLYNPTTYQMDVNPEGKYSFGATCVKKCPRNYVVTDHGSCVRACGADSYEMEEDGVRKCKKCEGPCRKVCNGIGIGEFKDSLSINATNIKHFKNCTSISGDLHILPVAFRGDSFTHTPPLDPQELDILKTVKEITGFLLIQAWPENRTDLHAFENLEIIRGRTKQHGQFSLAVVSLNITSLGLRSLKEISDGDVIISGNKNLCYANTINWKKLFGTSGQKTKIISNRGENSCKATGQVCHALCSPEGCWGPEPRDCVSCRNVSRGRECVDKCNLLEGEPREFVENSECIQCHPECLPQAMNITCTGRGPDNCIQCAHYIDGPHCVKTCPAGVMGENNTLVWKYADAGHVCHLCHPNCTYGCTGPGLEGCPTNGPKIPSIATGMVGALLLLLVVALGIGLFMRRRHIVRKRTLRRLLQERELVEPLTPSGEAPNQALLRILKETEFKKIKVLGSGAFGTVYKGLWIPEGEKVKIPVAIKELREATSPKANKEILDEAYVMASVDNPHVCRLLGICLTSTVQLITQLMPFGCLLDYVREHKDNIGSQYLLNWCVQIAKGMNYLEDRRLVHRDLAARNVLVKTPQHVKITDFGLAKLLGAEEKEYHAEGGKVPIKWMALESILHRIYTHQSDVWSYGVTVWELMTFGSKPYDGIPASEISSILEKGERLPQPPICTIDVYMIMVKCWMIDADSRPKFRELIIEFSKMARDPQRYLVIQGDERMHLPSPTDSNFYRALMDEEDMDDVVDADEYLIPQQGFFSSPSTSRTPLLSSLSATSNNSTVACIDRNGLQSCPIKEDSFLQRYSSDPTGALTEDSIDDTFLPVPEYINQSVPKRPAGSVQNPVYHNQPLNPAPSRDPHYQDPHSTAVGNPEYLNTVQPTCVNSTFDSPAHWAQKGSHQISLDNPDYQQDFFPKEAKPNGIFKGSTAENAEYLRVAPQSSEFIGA
Outline: as §1

NLK = target: T2, NLK (Homo sapiens, UniProt Q9UBE8); conditions: read-out: % control
T2 sequence (Q9UBE8 1-527): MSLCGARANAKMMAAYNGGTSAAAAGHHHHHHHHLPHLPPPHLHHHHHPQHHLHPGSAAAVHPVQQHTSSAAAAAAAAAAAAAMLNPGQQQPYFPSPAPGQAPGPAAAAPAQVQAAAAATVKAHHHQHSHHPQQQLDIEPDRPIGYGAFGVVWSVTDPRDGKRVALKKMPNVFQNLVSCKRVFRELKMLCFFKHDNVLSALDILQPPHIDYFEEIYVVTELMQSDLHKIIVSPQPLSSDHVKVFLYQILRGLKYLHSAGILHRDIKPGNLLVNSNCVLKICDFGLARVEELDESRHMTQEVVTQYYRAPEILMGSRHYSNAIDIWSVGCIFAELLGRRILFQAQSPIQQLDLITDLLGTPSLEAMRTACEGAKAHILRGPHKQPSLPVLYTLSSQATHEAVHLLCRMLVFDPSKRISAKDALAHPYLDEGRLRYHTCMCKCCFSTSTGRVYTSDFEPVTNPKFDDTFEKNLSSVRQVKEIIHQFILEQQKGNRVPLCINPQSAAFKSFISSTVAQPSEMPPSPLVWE
Outline: as §1

CDK9 = CDK9 (Homo sapiens, UniProt P50750); conditions: CDK9, 1 μM; read-out: % control
Chain of CDK9 (P50750 whole entry): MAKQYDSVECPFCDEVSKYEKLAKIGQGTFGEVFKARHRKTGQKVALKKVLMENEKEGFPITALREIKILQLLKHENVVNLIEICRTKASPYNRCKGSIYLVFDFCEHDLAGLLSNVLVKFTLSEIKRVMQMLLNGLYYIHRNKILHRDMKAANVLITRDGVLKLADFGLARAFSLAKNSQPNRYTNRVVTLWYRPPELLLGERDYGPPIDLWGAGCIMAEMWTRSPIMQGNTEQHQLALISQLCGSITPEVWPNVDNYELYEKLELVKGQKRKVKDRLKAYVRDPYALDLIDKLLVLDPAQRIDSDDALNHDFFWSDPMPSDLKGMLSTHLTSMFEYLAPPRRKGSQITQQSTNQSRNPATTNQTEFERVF
Outline: as §1

PAK2 = PAK2 (Homo sapiens, UniProt Q13177); conditions: PAK2, 1 μM; read-out: % control
Chain of PAK2 (Q13177 whole entry): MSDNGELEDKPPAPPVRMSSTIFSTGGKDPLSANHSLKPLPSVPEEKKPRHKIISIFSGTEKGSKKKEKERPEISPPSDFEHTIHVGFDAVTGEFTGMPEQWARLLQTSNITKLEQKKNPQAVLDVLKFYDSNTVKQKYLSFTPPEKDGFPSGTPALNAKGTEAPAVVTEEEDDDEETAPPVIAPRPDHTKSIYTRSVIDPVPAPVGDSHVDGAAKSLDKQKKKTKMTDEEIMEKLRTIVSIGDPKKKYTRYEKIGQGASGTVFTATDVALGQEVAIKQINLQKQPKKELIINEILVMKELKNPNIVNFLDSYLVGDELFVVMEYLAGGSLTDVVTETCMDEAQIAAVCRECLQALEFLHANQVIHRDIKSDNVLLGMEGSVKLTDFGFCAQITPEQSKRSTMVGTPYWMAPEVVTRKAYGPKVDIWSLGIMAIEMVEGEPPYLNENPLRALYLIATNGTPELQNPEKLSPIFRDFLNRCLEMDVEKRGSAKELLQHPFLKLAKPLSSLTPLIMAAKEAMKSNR
Outline: as §1

AKT3 = target: T3, AKT3 (Homo sapiens, UniProt Q9Y243); conditions: AKT3, 1 μM; read-out: % control
T3 construct: purchased KinomeScan®
T3 sequence (Q9Y243 whole entry): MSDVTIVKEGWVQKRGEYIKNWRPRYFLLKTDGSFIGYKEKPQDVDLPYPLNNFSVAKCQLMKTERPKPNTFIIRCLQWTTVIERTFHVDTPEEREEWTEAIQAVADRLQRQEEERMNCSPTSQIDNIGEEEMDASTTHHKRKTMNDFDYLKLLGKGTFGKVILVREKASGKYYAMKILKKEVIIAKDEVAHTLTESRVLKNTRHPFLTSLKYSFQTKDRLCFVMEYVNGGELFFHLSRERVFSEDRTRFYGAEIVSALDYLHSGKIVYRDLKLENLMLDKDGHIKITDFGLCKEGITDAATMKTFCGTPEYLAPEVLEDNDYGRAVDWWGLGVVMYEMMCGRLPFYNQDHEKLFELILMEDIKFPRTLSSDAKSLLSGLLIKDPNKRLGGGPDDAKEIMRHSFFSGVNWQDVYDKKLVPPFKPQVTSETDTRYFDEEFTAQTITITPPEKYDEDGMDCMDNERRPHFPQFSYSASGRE
Outline: as §1

Chain of CDK5 (Q00535 whole entry): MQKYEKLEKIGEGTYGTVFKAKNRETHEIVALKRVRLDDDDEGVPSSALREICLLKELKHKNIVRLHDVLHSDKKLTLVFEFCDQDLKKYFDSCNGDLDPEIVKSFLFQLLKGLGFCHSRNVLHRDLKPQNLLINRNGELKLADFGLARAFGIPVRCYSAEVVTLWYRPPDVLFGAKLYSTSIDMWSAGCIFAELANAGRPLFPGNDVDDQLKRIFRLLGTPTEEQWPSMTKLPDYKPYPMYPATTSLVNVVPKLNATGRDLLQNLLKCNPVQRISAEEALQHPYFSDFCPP

CNc1c(-c2ccc(C(=O)N3CCC(N4CCOCC4)CC3)cc2)cnc2[nH]cc(Cl)c12 [Compound 96, (4-(3-chloro-4-(methylamino)-1H-pyrrolo[2,3-b]pyridin-5-yl)phenyl)(4-morpholinopiperidin-1-yl)methanone]
remaining binding at 1 µM (CDK5): 97%
remaining binding at 1 µM (IKK-beta): 32%
remaining binding at 1 µM (ROCK1): 4.7%
remaining binding at 1 µM (MKNK2): 22%
remaining binding at 1 µM (EGFR): 100%
remaining binding at 1 µM (NLK): 100%
remaining binding at 1 µM (CDK9): 87%
remaining binding at 1 µM (PAK2): 96%
remaining binding at 1 µM (AKT3): 100%

O=C(c1ccc(-c2cnc3[nH]cc(Cl)c3c2NC2CCCC2)cc1)N1CCC(N2CCOCC2)CC1 [Compound 101, (4-(3-chloro-4-(cyclopentylamino)-1H-pyrrolo[2,3-b]pyridin-5-yl)phenyl)(4-morpholinopiperidin-1-yl)methanone]
remaining binding at 1 µM (CDK5): 94%
remaining binding at 1 µM (IKK-beta): 93%
remaining binding at 1 µM (ROCK1): 63%
remaining binding at 1 µM (MKNK2): 94%
remaining binding at 1 µM (EGFR): 97%
remaining binding at 1 µM (NLK): 88%
remaining binding at 1 µM (CDK9): 96%
remaining binding at 1 µM (PAK2): 80%
remaining binding at 1 µM (AKT3): 99%

CNc1c(-c2cnn([C@H]3CCN(C(C)=O)C[C@@H]3F)c2)cnc2[nH]cc(Cl)c12 [Compound 77, 1-((3S,4S)-4-(4-(3-chloro-4-(methylamino)-1H-pyrrolo[2,3-b]pyridin-5-yl)-1H-pyrazol-1-yl)-3-fluoropiperidin-1-yl)ethan-1-one]
remaining binding at 1 µM (CDK5): 91%
remaining binding at 1 µM (IKK-beta): 28%
remaining binding at 1 µM (ROCK1): 20%
remaining binding at 1 µM (MKNK2): 56%
remaining binding at 1 µM (EGFR): 95%
remaining binding at 1 µM (NLK): 95%
remaining binding at 1 µM (CDK9): 83%
remaining binding at 1 µM (PAK2): 100%
remaining binding at 1 µM (AKT3): 95%
